From article PMC5159840, “A Clickable Analogue of Ketamine Retains NMDA Receptor Activity, Psychoactivity, and Accumulates in Neurons” (Scientific Reports, 2016)

Legend:
NMDA receptor (NMDAR) [1] = test system: T1, NMDA receptor (NMDAR); assay: whole-cell patch clamp of NMDA-evoked currents, concentration-response at -70 mV; also NMDAR EPSCs; type: cell-based, Rattus norvegicus
T1 construct: gene Grin1; native receptor in dissociated cultures of rat hippocampal neurons

NMDA receptor (NMDAR) [2] = test system: T1, NMDA receptor (NMDAR); assay: whole-cell patch clamp of NMDA-evoked currents, concentration-response at -70 mV; type: cell-based, Rattus norvegicus

SMILES	IC50 (NMDA receptor (NMDAR) [1])	IC50 (NMDA receptor (NMDAR) [2])
NC1(c2ccccc2Cl)CCCCC1=O (racemic) [norketamine]	2 µM	
C#CCCCNC1(c2ccccc2Cl)CCCCC1=O (racemic) [compound 1, A-NK]	1.8 µM	
CNC1(c2ccccc2Cl)CCCCC1=O (racemic) [ketamine]		0.4 µM
